Test results: ChEMBL document CHEMBL1154879, “Discovery of (thienopyrimidin-2-yl)aminopyrimidines as potent, selective, and orally available pan-PI3-kinase and dual pan-PI3-kinase/mTOR inhibitors for the treatment of cancer” (J Med Chem, 2010)
Calls of active or inactive are those of the source. The rule behind the calls is not given here.

Key:
Mus musculus [1] = assay: Toxicity in human PC3 cells xenografted nu/nu mouse assessed as body weight loss at 10 mg/kg, po qd for 14 days; assay type: organism-based, PC-3; parameters: dose 10 mg/kg, route oral; settings: in vivo, 336 h
[2] = target: Serine/threonine-protein kinase mTOR (Homo sapiens, UniProt P42345)
Mus musculus [3] = assay: Inhibition of PI3K/Akt/mTOR pathway signaling in PI3Kalpha mutant expressing human MCF7.1 cells xenografted nu/nu mouse assessed as inhibition of Akt Ser473 phosphorylation at 10 mg/kg, po qd for 21 days measured 4 hrs after last administered dose on day 21 by electrochemiluminescence assay; assay type: functional
[4] = Clearance in nu/nu mouse at 1 mg/kg, iv; assay type: ADME, organism-based; parameters: dose 1 mg/kg, route intravenous; settings: in vivo
[5] = Protein binding in mouse plasma; assay type: ADME, cell-free; settings: read-out: PPB (converted)
Mus musculus [6] = assay: Inhibition of PI3K/Akt/mTOR pathway signaling in PI3Kalpha mutant expressing human MCF7.1 cells xenografted nu/nu mouse assessed as inhibition of Pras40 Thr246 phosphorylation at 10 mg/kg, po qd for 21 days measured 1 hr after last administered dose on day 21 by ELISA; assay type: functional
[7] = target: Phosphatidylinositol 4-phosphate 3-kinase C2 domain-containing subunit beta (Homo sapiens) (UniProt O00750); assay: Inhibition of PIK3C2beta at 1 uM
PC-3 [8] = assay: Antitumor activity against human PC3 cells xenografted in nu/nu mouse assessed as inhibition of tumor growth at 1 mg/kg, po qd for 14 days; assay type: functional, organism-based; parameters: dose 1 mg/kg
[9] = Clearance in Sprague-Dawley rat at 1 mg/kg, iv; assay type: ADME, organism-based; parameters: dose 1 mg/kg, route intravenous; settings: in vivo
Mus musculus [10] = assay: Inhibition of PI3K/Akt/mTOR pathway signaling in PI3Kalpha mutant expressing human MCF7.1 cells xenografted nu/nu mouse assessed as inhibition of S6RP Ser235/236 phosphorylation at 10 mg/kg, po qd for 21 days measured 4 hrs after last administered dose on day 21 by electrochemiluminescence assay; assay type: functional
[11] = Protein binding in rat plasma; assay type: ADME, cell-free; settings: read-out: PPB (converted)
[12] = Volume of distribution at steady state in cynomolgus monkey at 1 mg/kg, iv; assay type: ADME, organism-based, Macaca fascicularis; parameters: dose 1 mg/kg, route intravenous; settings: in vivo, read-out: Vdss
[13] = target: Phosphatidylinositol 3-kinase catalytic subunit type 3 (Homo sapiens) (UniProt Q8NEB9); assay: Inhibition of VPS34 at 1 uM
[14] = Half life in nu/nu mouse at 5 mg/kg, po; assay type: ADME, organism-based; parameters: dose 5 mg/kg, route oral; settings: in vivo
[15] = AUC in nu/nu mouse at 5 mg/kg, po; assay type: ADME, organism-based; parameters: dose 5 mg/kg, route oral; settings: plasma
[16] = Protein binding in cynomolgus monkey plasma; assay type: ADME, cell-free, Macaca fascicularis; settings: read-out: PPB (converted)
[17] = Cmax in nu/nu mouse at 5 mg/kg, po; assay type: ADME, organism-based; parameters: dose 5 mg/kg, route oral; settings: in vivo
[18] = AUC in Beagle dog at 2 mg/kg, po; assay type: ADME, organism-based, Canis lupus familiaris; parameters: dose 2 mg/kg, route oral; settings: plasma
[19] = Oral bioavailability in Sprague-Dawley rat at 5 mg/kg, po; assay type: ADME, organism-based; settings: in vivo
Mus musculus [20] = assay: Inhibition of PI3K/Akt/mTOR pathway signaling in PI3Kalpha mutant expressing human MCF7.1 cells xenografted nu/nu mouse assessed as inhibition of S6RP Ser235/236 phosphorylation at 10 mg/kg, po qd for 21 days measured 1 hr after last administered dose on day 21 by electrochemiluminescence assay; assay type: functional
[21] = Cmax in Sprague-Dawley rat at 5 mg/kg, po; assay type: ADME, organism-based; parameters: dose 5 mg/kg, route oral; settings: in vivo
[22] = Volume of distribution at steady state in Beagle dog at 1 mg/kg, iv; assay type: ADME, organism-based, Canis lupus familiaris; parameters: dose 1 mg/kg, route intravenous; settings: in vivo, read-out: Vdss
[23] = Clearance in Beagle dog at 1 mg/kg, iv; assay type: ADME, organism-based, Canis lupus familiaris; parameters: dose 1 mg/kg, route intravenous; settings: in vivo
Mus musculus [24] = assay: Toxicity in human MCF7.1 cells expressing PI3Kalpha mutant xenografted nu/nu mouse assessed as body weight loss at 10 mg/kg, po qd for 21 days; assay type: organism-based; parameters: dose 10 mg/kg, route oral; settings: in vivo, 504 h
[25] = Antitumor activity against human MCF7.1 cells expressing PI3Kalpha mutant xenografted in nu/nu mouse assessed as inhibition of tumor growth at 10 mg/kg, po qd for 21 days; assay type: functional; settings: MCF7.1, 504 h, read-out: TGI
[26] = Oral bioavailability in Sprague-Dawley rat at 2 mg/kg; assay type: ADME, organism-based; settings: in vivo
PC-3 [27] = assay: Antitumor activity against human PC3 cells xenografted in nu/nu mouse assessed as inhibition of tumor growth at 10 mg/kg, po qd for 14 days; assay type: functional; settings: PC-3, 336 h, read-out: TGI
[28] = target: Tyrosine-protein kinase SYK (Homo sapiens, UniProt P43405); assay: Inhibition of SYK
[29] = Oral bioavailability in Beagle dog at 2 mg/kg, po; assay type: ADME, organism-based, Canis lupus familiaris; settings: in vivo
[30] = Clearance in Sprague-Dawley rat liver microsomes; assay type: ADME, Microsome
[31] = target: Phosphatidylinositol 4-phosphate 3-kinase C2 domain-containing subunit alpha (Homo sapiens) (UniProt O00443); assay: Inhibition of PIK3C2alpha at 1 uM
[32] = AUC in Sprague-Dawley rat at 5 mg/kg, po; assay type: ADME, organism-based; parameters: dose 5 mg/kg, route oral; settings: plasma
[33] = Oral bioavailability in cynomolgus monkey at 2 mg/kg, po; assay type: ADME, organism-based, Macaca fascicularis; settings: in vivo
PC-3 [34] = assay: Antiproliferative activity against human PC3 cells deficient in PTEN in after 3 to 4 days; assay type: functional, cell-based
Aurora kinase A = target: T1, Aurora kinase A (Homo sapiens, UniProt O14965); assay: Inhibition of Aurora A kinase
T1 sequence (O14965 whole entry): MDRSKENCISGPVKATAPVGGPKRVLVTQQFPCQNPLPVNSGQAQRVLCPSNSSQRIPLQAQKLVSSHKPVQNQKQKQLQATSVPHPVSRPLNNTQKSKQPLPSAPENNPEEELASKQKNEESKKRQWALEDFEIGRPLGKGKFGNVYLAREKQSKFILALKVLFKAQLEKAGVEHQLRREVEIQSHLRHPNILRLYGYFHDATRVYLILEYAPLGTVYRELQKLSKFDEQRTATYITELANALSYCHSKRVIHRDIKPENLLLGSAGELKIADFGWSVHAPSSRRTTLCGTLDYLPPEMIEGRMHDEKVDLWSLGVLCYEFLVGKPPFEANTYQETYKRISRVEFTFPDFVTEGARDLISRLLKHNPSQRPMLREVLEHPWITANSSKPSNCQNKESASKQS

[35] = target: Mitogen-activated protein kinase kinase kinase 9 (Homo sapiens, UniProt P80192); assay: Inhibition of MLK1
[36] = AUC in cynomolgus monkey at 2 mg/kg, po; assay type: ADME, organism-based, Macaca fascicularis; parameters: dose 2 mg/kg, route oral; settings: plasma
[37] = Volume of distribution at steady state in Sprague-Dawley rat at 1 mg/kg, iv; assay type: ADME, organism-based; parameters: dose 1 mg/kg, route intravenous; settings: in vivo, read-out: Vdss
[38] = Protein binding in Beagle dog plasma; assay type: ADME, cell-free, Canis lupus familiaris; settings: read-out: PPB (converted)
[39] = Clearance in cynomolgus monkey at 1 mg/kg, iv; assay type: ADME, organism-based, Macaca fascicularis; parameters: dose 1 mg/kg, route intravenous; settings: in vivo
Mus musculus [40] = assay: Inhibition of PI3K/Akt/mTOR pathway signaling in PI3Kalpha mutant expressing human MCF7.1 cells xenografted nu/nu mouse assessed as inhibition of Akt Ser473 phosphorylation at 10 mg/kg, po qd for 21 days measured 1 hr after last administered dose on day 21 by electrochemiluminescence assay; assay type: functional
[41] = Oral bioavailability in nu/nu mouse at 5 mg/kg, po; assay type: ADME, organism-based; settings: in vivo
[42] = Cmax in Beagle dog at 2 mg/kg, po; assay type: ADME, organism-based, Canis lupus familiaris; parameters: dose 2 mg/kg, route oral; settings: in vivo
[43] = Volume of distribution at steady state in nu/nu mouse at 1 mg/kg, iv; assay type: ADME, organism-based; parameters: dose 1 mg/kg, route intravenous; settings: in vivo, read-out: Vdss
Mus musculus [44] = assay: Toxicity in human PC3 cells xenografted nu/nu mouse assessed as body weight loss at 1 mg/kg, po qd for 14 days; assay type: organism-based, PC-3; parameters: dose 1 mg/kg, route oral; settings: in vivo, 336 h
PC-3 [45] = assay: Antitumor activity against human PC3 cells xenografted in nu/nu mouse assessed as reduction of tumor volume at 10 mg/kg, po qd for 14 days; assay type: functional; parameters: scale not given: the % may be the effect or the level left
[46] = target: Phosphatidylinositol 4-kinase beta (Homo sapiens) (UniProt Q9UBF8); assay: Inhibition of PI4Kbeta at 1 uM
[47] = Cmax in cynomolgus monkey at 2 mg/kg, po; assay type: ADME, organism-based, Macaca fascicularis; parameters: dose 2 mg/kg, route oral; settings: in vivo
Mus musculus [48] = assay: Inhibition of PI3K/Akt/mTOR pathway signaling in PI3Kalpha mutant expressing human MCF7.1 cells xenografted nu/nu mouse assessed as inhibition of Pras40 Thr246 phosphorylation at 10 mg/kg, po qd for 21 days measured 4 hrs after last administered dose on day 21 by ELISA; assay type: functional

Chain of Phosphatidylinositol 4-kinase beta (Homo sapiens) (Q9UBF8 2-816 limits assumed): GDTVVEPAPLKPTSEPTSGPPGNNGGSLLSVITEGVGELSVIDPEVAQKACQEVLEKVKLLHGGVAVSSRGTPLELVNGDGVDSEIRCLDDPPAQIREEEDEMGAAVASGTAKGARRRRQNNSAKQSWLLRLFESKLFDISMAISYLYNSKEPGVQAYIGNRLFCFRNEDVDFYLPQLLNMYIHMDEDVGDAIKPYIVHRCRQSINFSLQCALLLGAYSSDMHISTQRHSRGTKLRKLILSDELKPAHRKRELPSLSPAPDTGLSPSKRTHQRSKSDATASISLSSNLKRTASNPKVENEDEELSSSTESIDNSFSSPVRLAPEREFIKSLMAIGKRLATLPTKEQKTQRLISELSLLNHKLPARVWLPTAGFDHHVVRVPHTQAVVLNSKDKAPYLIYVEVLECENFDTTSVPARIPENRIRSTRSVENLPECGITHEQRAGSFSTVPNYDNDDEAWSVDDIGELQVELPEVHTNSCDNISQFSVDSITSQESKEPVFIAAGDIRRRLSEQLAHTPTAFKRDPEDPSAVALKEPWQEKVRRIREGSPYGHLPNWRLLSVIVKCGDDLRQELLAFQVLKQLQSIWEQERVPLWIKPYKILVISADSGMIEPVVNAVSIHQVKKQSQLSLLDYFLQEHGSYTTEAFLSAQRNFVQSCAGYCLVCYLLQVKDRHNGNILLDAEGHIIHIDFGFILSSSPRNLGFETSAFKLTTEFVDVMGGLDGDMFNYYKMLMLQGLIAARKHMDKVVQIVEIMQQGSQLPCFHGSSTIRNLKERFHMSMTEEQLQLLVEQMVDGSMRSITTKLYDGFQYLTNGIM
Chain of Mitogen-activated protein kinase kinase kinase 9 (P80192 whole entry): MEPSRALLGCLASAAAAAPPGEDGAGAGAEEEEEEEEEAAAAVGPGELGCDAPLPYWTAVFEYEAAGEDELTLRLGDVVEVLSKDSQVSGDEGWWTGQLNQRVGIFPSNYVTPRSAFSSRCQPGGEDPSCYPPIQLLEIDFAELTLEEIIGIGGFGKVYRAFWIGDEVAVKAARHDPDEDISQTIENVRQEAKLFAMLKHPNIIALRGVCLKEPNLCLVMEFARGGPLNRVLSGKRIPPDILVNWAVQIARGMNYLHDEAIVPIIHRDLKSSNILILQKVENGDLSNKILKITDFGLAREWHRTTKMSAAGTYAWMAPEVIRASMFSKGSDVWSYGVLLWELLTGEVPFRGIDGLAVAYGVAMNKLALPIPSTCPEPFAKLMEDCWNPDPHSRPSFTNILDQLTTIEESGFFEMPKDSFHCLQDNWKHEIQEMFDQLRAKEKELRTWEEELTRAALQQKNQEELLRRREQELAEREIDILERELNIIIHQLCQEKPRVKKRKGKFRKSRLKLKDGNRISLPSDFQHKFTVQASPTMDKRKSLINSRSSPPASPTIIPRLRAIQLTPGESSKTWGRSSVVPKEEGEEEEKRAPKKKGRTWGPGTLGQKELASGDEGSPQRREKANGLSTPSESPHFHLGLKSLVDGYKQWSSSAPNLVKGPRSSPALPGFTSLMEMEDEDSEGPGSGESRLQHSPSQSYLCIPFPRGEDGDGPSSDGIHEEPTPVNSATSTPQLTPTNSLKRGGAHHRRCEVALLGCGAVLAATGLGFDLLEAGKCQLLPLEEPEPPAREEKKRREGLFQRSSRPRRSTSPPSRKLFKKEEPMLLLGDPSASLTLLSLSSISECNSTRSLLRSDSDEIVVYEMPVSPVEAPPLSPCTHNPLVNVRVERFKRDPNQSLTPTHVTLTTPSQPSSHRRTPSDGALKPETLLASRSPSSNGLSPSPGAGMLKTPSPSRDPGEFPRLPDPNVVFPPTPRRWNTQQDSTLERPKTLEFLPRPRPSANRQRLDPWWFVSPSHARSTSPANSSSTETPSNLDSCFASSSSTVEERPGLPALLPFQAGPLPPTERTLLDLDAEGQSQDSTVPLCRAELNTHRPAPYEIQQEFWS
Chain of Phosphatidylinositol 3-kinase catalytic subunit type 3 (Homo sapiens) (Q8NEB9 whole entry): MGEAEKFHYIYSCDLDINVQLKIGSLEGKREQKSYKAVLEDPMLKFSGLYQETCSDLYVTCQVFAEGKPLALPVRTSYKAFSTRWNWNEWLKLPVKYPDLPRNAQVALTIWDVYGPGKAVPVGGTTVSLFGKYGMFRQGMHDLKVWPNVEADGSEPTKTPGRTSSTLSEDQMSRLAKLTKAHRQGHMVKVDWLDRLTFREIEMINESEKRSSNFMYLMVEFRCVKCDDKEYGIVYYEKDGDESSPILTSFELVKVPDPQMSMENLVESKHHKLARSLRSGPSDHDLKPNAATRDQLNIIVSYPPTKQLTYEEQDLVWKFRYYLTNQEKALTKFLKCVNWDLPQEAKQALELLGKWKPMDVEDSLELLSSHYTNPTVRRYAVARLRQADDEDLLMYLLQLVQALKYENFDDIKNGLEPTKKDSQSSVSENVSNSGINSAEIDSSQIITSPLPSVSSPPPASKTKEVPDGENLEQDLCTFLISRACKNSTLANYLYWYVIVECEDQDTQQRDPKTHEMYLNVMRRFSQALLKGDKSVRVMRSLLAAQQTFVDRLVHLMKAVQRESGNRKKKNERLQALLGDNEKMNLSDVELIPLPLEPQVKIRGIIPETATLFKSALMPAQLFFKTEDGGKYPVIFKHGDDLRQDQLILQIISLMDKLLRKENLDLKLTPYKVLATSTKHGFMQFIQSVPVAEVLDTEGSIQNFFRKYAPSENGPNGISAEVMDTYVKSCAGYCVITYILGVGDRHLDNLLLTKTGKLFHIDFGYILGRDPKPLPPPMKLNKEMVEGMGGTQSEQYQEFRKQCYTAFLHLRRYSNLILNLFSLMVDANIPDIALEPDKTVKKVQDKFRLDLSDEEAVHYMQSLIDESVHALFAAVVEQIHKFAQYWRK
Chain of Phosphatidylinositol 4-phosphate 3-kinase C2 domain-containing subunit beta (Homo sapiens) (O00750 whole entry, the tested form may be a part): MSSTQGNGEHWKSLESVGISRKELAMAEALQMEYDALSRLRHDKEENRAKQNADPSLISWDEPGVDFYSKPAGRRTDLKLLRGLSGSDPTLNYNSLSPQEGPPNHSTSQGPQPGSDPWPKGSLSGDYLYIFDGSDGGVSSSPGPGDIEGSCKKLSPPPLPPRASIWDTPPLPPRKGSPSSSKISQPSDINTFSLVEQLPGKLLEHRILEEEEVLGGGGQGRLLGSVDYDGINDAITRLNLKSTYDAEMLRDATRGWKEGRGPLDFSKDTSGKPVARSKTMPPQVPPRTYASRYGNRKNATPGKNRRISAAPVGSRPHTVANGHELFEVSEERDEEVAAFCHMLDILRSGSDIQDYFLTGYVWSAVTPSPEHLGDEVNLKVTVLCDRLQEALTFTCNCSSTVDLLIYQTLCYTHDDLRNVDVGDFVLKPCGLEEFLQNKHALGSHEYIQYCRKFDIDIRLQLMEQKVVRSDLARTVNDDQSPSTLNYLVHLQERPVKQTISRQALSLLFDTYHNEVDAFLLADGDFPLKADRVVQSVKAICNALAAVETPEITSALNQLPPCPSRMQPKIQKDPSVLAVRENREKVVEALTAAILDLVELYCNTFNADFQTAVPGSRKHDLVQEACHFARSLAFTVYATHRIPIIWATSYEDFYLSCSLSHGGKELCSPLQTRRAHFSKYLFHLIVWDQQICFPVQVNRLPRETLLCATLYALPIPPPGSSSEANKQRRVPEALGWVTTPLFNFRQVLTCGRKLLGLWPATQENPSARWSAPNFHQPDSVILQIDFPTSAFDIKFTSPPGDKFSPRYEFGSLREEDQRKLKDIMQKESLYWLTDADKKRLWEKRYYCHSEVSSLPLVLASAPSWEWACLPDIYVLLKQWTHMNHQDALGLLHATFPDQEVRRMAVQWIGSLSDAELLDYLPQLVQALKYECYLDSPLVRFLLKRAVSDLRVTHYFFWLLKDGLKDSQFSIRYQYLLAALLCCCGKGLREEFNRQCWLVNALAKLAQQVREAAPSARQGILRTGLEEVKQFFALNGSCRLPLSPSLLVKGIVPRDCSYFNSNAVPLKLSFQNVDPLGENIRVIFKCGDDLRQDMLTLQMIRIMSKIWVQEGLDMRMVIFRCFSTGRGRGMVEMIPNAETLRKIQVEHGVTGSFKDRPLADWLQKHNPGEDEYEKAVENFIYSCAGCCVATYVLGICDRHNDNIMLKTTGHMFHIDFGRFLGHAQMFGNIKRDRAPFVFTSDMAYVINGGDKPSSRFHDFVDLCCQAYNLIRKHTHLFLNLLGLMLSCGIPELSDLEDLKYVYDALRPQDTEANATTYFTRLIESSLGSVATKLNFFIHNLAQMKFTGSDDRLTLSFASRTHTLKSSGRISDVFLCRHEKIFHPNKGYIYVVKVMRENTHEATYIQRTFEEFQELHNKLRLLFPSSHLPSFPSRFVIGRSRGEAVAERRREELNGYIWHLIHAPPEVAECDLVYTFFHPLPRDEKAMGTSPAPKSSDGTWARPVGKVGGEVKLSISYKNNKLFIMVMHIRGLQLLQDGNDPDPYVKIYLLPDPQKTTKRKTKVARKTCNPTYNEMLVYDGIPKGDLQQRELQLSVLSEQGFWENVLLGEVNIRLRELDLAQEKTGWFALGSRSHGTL

For `CC(C)(O)c1cc2nc(-c3cnc(N)nc3)nc(N3CCOCC3)c2s1`, the Activity (Mus musculus [1]) was “Non-toxic”, the IC50 [2] was 30 nM and the inhibition in vivo at 10 mg/kg (Mus musculus [3]) was 73%. It also gave a clearance [4] of 17 mL/min/kg, a fraction unbound [5] of 0.36 and an inhibition in vivo at 10 mg/kg (Mus musculus [6]) of 98%. The inhibition [7] was 78%, the Activity (PC-3 [8]) was “inactive” and the clearance [9] was 9 mL/min/kg. It also gave an inhibition in vivo at 10 mg/kg (Mus musculus [10]) of 75%, a fraction unbound [11] of 0.51 and a Vd [12] of 3 L/kg. For the same compound, the inhibition [13] was “inactive”, the half-life [14] was 216 min and the AUC [15] was 14 µM·h. It also gave a fraction unbound [16] of 0.21, a Cmax [17] of 2100 nM and an AUC [18] of 63 µM·h. For the same compound, the bioavailability [19] was 83%, the inhibition in vivo at 10 mg/kg (Mus musculus [20]) was 81% and the Cmax [21] was 2200 nM. The Vd [22] was 1.6 L/kg, the clearance [23] was 1.6 mL/min/kg and the Activity (Mus musculus [24]) was “Non-toxic”. The inhibition in vivo at 10 mg/kg [25] was 73%, the bioavailability [26] was 83% and the inhibition in vivo at 10 mg/kg (PC-3 [27]) was 89%. For the same compound, the IC50 [28] was 371 nM, the bioavailability [29] was 100% and the CLint scaled [30] was 23 mL/min/kg. The inhibition [31] was 65%, the AUC [32] was 21 µM·h and the bioavailability [33] was 62%. The IC50 (PC-3 [34]) was 330 nM, the IC50 (Aurora kinase A) was > 10 µM and the IC50 [35] was 591 nM. For the same compound, the AUC [36] was 3.8 µM·h, the Vd [37] was 2.8 L/kg and the fraction unbound [38] was 0.27. It also gave a clearance [39] of 15 mL/min/kg, an inhibition in vivo at 10 mg/kg (Mus musculus [40]) of 80% and a bioavailability [41] of 100%. For the same compound, the Cmax [42] was 4.4 µM, the Vd [43] was 2.8 L/kg and the Activity (Mus musculus [44]) was “Non-toxic”. The Activity (PC-3 [45]) was 89%, the inhibition [46] was “inactive” and the Cmax [47] was 1100 nM. The inhibition in vivo at 10 mg/kg (Mus musculus [48]) was 88%.
